Data: patent US20260217767A1, “NOVEL A4B7 THIOETHER PEPTIDE DIMER ANTAGONISTS” (Protagonist Therapeutics, Inc., priority 2014, published 2026)
*1 amine or outer side, *2 acyl side, *3 side chain or, on linkers, in order; H or OH if unused. Where a SMILES comes first, the peptide text is derived from it. Bridges are numbered along the chain shown (N, C = ends). [ ]: non-standard residue; d: D form. Phe(4-tBu) = CC(C)(C)c1ccc(C[C@H](N)C(=O)O)cc1; NMeR = CN[C@@H](CCCNC(=N)N)C(=O)O; β3hE = N[C@@H](CCC(=O)O)CC(=O)O; X1 = O=C(c1ccccc1C[*:2])[*:1]; Pen = CC(C)(S)[C@H](N)C(=O)O

biological target: T1, RPMI 8866 cells (Homo sapiens, UniProt P13612+P26010); assay: α4β7-MAdCAM Cell Adhesion Assay; type: cell-based; conditions: thioether monomer peptides, Table 6; read-out: Cell-Adhesion A4B7
T1 sequence (P13612 34-1032): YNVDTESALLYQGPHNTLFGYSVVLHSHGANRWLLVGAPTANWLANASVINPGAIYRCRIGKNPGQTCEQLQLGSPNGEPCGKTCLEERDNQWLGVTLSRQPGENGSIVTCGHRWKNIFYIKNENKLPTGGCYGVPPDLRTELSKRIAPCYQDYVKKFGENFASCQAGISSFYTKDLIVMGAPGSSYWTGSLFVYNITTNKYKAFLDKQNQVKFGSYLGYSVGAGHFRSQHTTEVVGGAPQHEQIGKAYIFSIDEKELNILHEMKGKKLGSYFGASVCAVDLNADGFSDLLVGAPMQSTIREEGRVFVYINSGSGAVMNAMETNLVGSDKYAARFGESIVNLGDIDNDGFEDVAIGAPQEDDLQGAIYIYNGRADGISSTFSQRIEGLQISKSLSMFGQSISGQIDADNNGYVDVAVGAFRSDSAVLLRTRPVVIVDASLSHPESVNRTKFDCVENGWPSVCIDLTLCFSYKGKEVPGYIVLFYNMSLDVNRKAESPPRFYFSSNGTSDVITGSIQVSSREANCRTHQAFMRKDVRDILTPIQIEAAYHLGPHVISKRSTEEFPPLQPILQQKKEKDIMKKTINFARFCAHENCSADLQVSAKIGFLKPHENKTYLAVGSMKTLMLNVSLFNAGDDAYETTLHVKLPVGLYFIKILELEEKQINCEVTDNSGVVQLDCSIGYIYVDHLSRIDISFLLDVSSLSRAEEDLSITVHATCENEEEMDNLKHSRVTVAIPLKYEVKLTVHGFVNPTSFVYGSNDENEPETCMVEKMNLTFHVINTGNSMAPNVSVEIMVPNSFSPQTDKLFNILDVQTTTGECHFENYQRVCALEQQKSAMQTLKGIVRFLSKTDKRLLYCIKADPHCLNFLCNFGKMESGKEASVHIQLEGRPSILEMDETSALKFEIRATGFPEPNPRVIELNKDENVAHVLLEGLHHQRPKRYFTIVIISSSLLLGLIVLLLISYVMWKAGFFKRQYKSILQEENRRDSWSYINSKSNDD
T1 sequence (P26010 20-798): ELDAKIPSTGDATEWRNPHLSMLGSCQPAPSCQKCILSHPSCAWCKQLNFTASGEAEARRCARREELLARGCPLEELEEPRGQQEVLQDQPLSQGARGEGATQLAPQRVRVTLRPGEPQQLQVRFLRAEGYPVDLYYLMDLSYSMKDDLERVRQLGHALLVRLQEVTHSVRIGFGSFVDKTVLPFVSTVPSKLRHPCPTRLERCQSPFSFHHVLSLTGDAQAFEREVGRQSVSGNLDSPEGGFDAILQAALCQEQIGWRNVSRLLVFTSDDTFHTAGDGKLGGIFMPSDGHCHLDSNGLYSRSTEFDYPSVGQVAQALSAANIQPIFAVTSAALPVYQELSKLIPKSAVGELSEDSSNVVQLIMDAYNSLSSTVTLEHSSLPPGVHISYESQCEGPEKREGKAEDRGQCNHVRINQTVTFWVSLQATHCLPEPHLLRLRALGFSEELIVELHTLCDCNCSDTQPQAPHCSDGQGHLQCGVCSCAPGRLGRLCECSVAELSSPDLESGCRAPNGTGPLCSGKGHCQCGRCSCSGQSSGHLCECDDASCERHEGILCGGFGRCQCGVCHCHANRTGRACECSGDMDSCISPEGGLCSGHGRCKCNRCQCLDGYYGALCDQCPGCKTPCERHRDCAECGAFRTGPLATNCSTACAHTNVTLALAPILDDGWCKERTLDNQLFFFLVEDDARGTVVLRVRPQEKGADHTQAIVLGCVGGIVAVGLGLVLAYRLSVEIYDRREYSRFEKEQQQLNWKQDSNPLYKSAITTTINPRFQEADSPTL
Protocol: α4β7-MAdCAM Cell Adhesion Assay
RPMI 8866 cells (Sigma #95041316) were cultured in RPMI 1640 HEPES medium (Invitrogen #22400-089) supplemented with 10% serum (Fetal Bovine Serum, Invitrogen #16140-071), 1 mM sodium pyruvate (Invitrogen #11360-070), 2 mM L-glutamine (Invitrogen #25030-081) and Penicillin-Streptomycin (Invitrogen #15140-122) at 100 units of penicillin and 100 μg of streptomycin per ml. The cells were washed two times in DMEM medium (ATCC #30-2002) supplemented with 0.1% BSA, 10 mM HEPES pH 7 and 1 mM MnCl2. The cells were re-suspended in supplemented DMEM medium at a density of 4×10^6 cells/ml.
A Nunc MaxiSorp plate was coated with rh MAdCAM-1/Fc Chimera (R&D #6065-MC) at 200 ng per well in 50 ul per well in 1×PBS and incubated at 4° C. overnight. The solution was then removed by shaking, blocked with 250 ul per well PBS containing 1% BSA, and incubated at 37° C. for 1 hr. The solution was removed by shaking. Peptides were diluted by serial dilution in a final volume of 50 ul per well (2× concentration). To each well, 50 ul of cells (200,000 cells) were added and the plate was incubated at 37° C., 5% CO2 for 30-45 min to allow cell adhesion. The wells were washed manually three times (100 ul per wash) with supplemented DMEM. After the final wash, 100 μl/well of supplemented DMEM and 10 ul/well of MTT reagent (ATTC cat #30-1010K) were added. The plate was incubated at 37° C., 5% CO2 for 2-3 hrs until a purple precipitate is visible. 100 ul of Detergent Reagent (ATTC cat #30-1010K) was added to each well. The plate was covered from the light, wrapped in Parafilm to prevent evaporation, and left overnight at room temperature in the dark. The plate was shaken for 5 min and the absorbance at 570 nm is measured. To calculate the dose response, the absorbance value of control wells not containing cells was subtracted from each test well.

`CC(C)C[C@@H]1NC(=O)[C@H]([C@@H](C)O)NC(=O)[C@H](CC(=O)O)NC(=O)[C@H](CO)NC(=O)[C@H](CCCNC(=N)N)N(C)C(=O)c2cccc(c2)CSC(C)(C)[C@@H](C(=O)N[C@@H](Cc2c[nH]c3ccccc23)C(=O)N[C@H](CCC(=O)O)C(=O)N[C@H](CCCCN)C(N)=O)NC1=O` [compound 111] (HELM PEPTIDE1{[meR].S.D.T.L.[Pen].W.[dE].[dK].[am]}|CHEM1{[O=C(c1cccc(C[*:2])c1)[*:1]]}$PEPTIDE1,CHEM1,1:R1-1:R1|PEPTIDE1,CHEM1,6:R3-1:R2$$$V2.0) was tested. Which IC50 did it give?
Its IC50 is over 1000 nM.

For `CC(C)C[C@@H]1NC(=O)[C@H]([C@@H](C)O)NC(=O)[C@H](CC(=O)O)NC(=O)[C@H](CO)NC(=O)[C@H](CCCNC(=N)N)N(C)C(=O)c2ccc(cc2)CSC(C)(C)[C@@H](C(=O)N[C@@H](Cc2c[nH]c3ccccc23)C(=O)N[C@H](CCC(=O)O)C(=O)N[C@H](CCCCN)C(N)=O)NC1=O` [compound 112] (HELM PEPTIDE1{[meR].S.D.T.L.[Pen].W.[dE].[dK].[am]}|CHEM1{[O=C(c1ccc(C[*:2])cc1)[*:1]]}$PEPTIDE1,CHEM1,1:R1-1:R1|PEPTIDE1,CHEM1,6:R3-1:R2$$$V2.0), which IC50 is on record?
Its IC50 is over 1000 nM.

For `CC(C)C[C@@H]1NC(=O)[C@H]([C@@H](C)O)NC(=O)[C@H](CC(=O)O)NC(=O)[C@H](CO)NC(=O)[C@H](CCCNC(=N)N)N(C)C(=O)c2ccccc2CSC[C@@H](C(=O)N2Cc3ccccc3C[C@H]2C(=O)N[C@H](CCCCN)C(=O)O)NC1=O` [compound 118] (HELM PEPTIDE1{[meR].S.D.T.L.C.[Tic].[dK]}|CHEM1{[O=C(c1ccccc1C[*:2])[*:1]]}$PEPTIDE1,CHEM1,1:R1-1:R1|PEPTIDE1,CHEM1,6:R3-1:R2$$$V2.0), which IC50 is on record?
The IC50 was 100 to 1000 nM.

`CC(C)C[C@@H]1NC(=O)[C@H]([C@@H](C)O)NC(=O)[C@H](CC(=O)O)NC(=O)[C@H](C)NC(=O)[C@H](CCCNC(=N)N)N(C)C(=O)c2ccccc2CSC(C)(C)[C@@H](C(=O)N[C@@H](Cc2ccc(C(C)(C)C)cc2)C(=O)N[C@@H](CCC(=O)O)CC(N)=O)NC1=O` [compound 139] ([NMeR]ADTL[Pen][Phe(4-tBu)][β3hE]-NH2; linker N-6 via X1) was tested. Which IC50 did it give?
Its IC50 is 25 to 100 nM.

same assay, conditions: thioether peptide dimers, Table 7; read-out: Cell-Adhesion A4B7

“180 (RSDTLCXEK; not fully specified; CROSSLINK - N-term 2-Benzyl with a thioether bond between the N-term and the residue at position 6; MOD_RES 1 N-Methyl Arginine; SITE 7 aminoindan-2-carboxylic acid; SITE 8 D-Glu; SITE 9 D-Lys; SITE 9 C-term NH2) [compound 180]” was tested. Which IC50 did it give?
The IC50 was 100 to 1000 nM.

“181 (RSDTLXWEK; not fully specified; CROSSLINK - N-term 2-Benzyl with a thioether bond between the N-term and the residue at position 6; MOD_RES 1 N-Methyl Arginine; SITE 6 D-Penicillamine; SITE 9 D-Lys; SITE 9 C-term NH2) [compound 181]” was tested. Which IC50 did it give?
Its IC50 is over 1000 nM.

With “221 (RSDTLCXK; not fully specified; CROSSLINK - N-term 2-Benzyl with a thioether bond between the N-term and the residue at position 6; MOD_RES 1 N-Methyl Arginine; SITE 7 (3S-)-1,2,3,4-tetrahydroisoquinoline-3-carboxylic acid; SITE 8 D-Lys; SITE 8 C-term OH) [compound 221]” as the compound, how does the IC50 read?
Its IC50 is 25 to 100 nM.

With `CC(C)C[C@@H]1NC(=O)[C@H]([C@@H](C)O)NC(=O)[C@H](CC(=O)O)NC(=O)[C@H](CO)NC(=O)[C@H](CCCNC(=N)N)N(C)C(=O)C(C)SC(C)(C)[C@@H](C(=O)N[C@@H](Cc2c[nH]c3ccccc23)C(=O)N[C@H](CCCCN)C(N)=O)NC1=O` (single isomer, unassigned) [compound 148] as the compound, how does the IC50 read?
The IC50 was over 1000 nM.

Which IC50 does the source give for `CC(C)C[C@@H]1NC(=O)[C@H]([C@@H](C)O)NC(=O)[C@H](CC(=O)O)NC(=O)[C@H](CO)NC(=O)[C@H](CCCNC(=N)N)N(C)C(=O)c2ccccc2CSC[C@@H](C(=O)N[C@@H](Cc2c[nH]c3ccccc23)C(=O)N[C@@H](CCC(=O)O)C(=O)N[C@H](CCCCN)C(N)=O)NC1=O` [compound 145] (HELM PEPTIDE1{[meR].S.D.T.L.C.W.E.[dK].[am]}|CHEM1{[O=C(c1ccccc1C[*:2])[*:1]]}$PEPTIDE1,CHEM1,1:R1-1:R1|PEPTIDE1,CHEM1,6:R3-1:R2$$$V2.0) here?
Its IC50 is 25 to 100 nM.

How did the IC50 turn out when `CC(C)C[C@@H]1NC(=O)[C@H]([C@@H](C)O)NC(=O)[C@H](CC(=O)O)NC(=O)[C@H](CO)NC(=O)[C@H](CCCNC(=N)N)N(C)C(=O)CSC(C)(C)[C@@H](C(=O)N[C@@H](Cc2c[nH]c3ccccc23)C(=O)N[C@H](CCCCN)C(N)=O)NC1=O` [compound 147] was run?
Its IC50 is over 1000 nM.

How did the IC50 turn out when `CC(C)C[C@@H]1NC(=O)[C@H]([C@@H](C)O)NC(=O)[C@H](CC(=O)O)NC(=O)[C@H](CO)NC(=O)[C@H](CCCNC(=N)N)N(C)C(=O)c2ccccc2CSC[C@@H](C(=O)N[C@H](Cc2ccccc2)C(=O)N[C@@H](CCC(=O)O)C(=O)N[C@H](CCCCN)C(N)=O)NC1=O` [compound 186] (HELM PEPTIDE1{[meR].S.D.T.L.C.[dF].E.[dK].[am]}|CHEM1{[O=C(c1ccccc1C[*:2])[*:1]]}$PEPTIDE1,CHEM1,1:R1-1:R1|PEPTIDE1,CHEM1,6:R3-1:R2$$$V2.0) was run?
The IC50 was 25 to 100 nM.

For `CC(C)C[C@@H]1NC(=O)[C@H]([C@@H](C)O)NC(=O)[C@H](CC(=O)O)NC(=O)[C@H](CO)NC(=O)[C@H](CCCNC(=N)N)N(C)C(=O)c2ccccc2CSC[C@@H](C(=O)N[C@H](Cc2ccccc2)C(=O)N[C@H](CCC(=O)O)C(=O)N[C@H](CCCCN)C(N)=O)NC1=O` [compound 187] (HELM PEPTIDE1{[meR].S.D.T.L.C.[dF].[dE].[dK].[am]}|CHEM1{[O=C(c1ccccc1C[*:2])[*:1]]}$PEPTIDE1,CHEM1,1:R1-1:R1|PEPTIDE1,CHEM1,6:R3-1:R2$$$V2.0), which IC50 is on record?
The IC50 was 25 to 100 nM.
